# Results taken from patent US8741897B2, “Glucocorticoid mimetics, methods of making them, pharmaceutical compositions and uses thereof” (Boehringer Ingelheim Pharmaceuticals Inc., priority 2003, dated 2014).
# Key:
# [1] = test system: glucocorticoid receptor function; experiment: one or more of the above assays (GR binding and glucocorticoid receptor cell assays: aromatase, IL-6, TAT, MMTV-Luc, IL-8, ICAM-Luc); format: cell-based; conditions: assay not specified per compound
# [2] = target: T1, human glucocorticoid receptor (GR) complex (Homo sapiens, UniProt P04150); experiment: Glucocorticoid receptor competitive binding assay (fluorescence polarization, TAMRA-labeled dexamethasone probe); conditions: compounds of Formula (IA)
# T1 construct: made in house; host or cells: insect expression system (baculovirus lysate)
# T1 sequence (P04150 1-777): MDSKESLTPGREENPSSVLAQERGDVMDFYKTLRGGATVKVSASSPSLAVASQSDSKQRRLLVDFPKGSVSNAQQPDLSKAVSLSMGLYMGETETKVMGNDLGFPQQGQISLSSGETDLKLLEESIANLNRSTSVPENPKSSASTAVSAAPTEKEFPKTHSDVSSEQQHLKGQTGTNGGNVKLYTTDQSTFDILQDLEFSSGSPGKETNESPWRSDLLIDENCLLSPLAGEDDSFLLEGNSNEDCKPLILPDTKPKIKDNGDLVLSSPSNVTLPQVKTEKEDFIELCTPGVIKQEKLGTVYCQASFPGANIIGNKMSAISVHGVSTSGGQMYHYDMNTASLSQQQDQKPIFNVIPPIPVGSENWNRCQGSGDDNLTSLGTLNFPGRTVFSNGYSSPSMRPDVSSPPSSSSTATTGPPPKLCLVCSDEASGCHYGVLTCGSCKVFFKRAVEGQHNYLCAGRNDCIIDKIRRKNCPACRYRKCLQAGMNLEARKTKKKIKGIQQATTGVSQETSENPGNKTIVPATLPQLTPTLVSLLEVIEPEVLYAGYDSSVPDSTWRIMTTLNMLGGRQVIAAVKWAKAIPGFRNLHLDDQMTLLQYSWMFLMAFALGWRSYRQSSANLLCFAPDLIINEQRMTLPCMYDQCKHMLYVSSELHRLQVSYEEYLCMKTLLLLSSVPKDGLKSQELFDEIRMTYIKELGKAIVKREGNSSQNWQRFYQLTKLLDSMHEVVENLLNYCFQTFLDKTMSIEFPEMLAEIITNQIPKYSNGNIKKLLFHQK
# Method in brief: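 Fluorescence-polarization competition against 15 nM TAMRA-dexamethasone (stock added to the mix) for human GR complex from baculovirus lysate diluted 1:170. Buffer: 10 mM TES, 50 mM KCl, 20 mM Na2MoO4, 1.5 mM EDTA, 0.04% CHAPS, 10% glycerol, 1 mM DTT, pH 7.4. IC50 from 4-parameter logistic fit.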
# [3] = test system: Human osteosarcoma MG-63 cells; experiment: Inhibition of osteocalcin production from osteoblast cell line MG-63; format: cell-based; conditions: Vitamin D 10 nM, 48 hours
# Method: 7. Inhibition of Osteocalcin Production from Osteoblast Cell Line MG-63
# The next day, wells are replaced with fresh media. Cells are treated with Vitamin D (Sigma, Cat. No. D1530) to a final concentration of 10 nM, and with the test compounds in concentrations of 10^−6 M to 10^−9 M, in a total volume of 200 μL per well. Samples are done in duplicates. […] Positive control wells receive Vitamin D only, without compounds, and represent maximum (100%) amount of osteocalcin production. Plates are incubated at 37° C. incubator for 48 hours and supernatants are harvested at the end of incubation. Amounts of osteocalcin in the supernatants are determined by the Glype osteocalcin ELISA kit (Zymed, Cat. No. 99-0054) according to manufacture's protocol. Inhibition of osteocalcin by test compounds is expressed in percentage relative to positive controls. IC50 values of the test compounds are derived by non-lineal curve fitting.
compound,measurement,setting,value
"Cc1cc2[nH]c(CC(O)(CC(C)(C)c3cc(Cl)cc4c3OCC4)C(F)(F)F)cc2c(C)n1 (stereo not drawn) [4-(5-Chloro-2,3-dihydrobenzofuran-7-yl)-2-(4,6-dimethyl-1H-pyrrolo[3,2-c]pyridin-2-ylmethyl)-1,1,1-trifluoro-4-methylpentan-2-ol]",activity as agonists of the glucocorticoid receptor function in one or more of the above assays,[1],potent agonists
same,activity in the GR binding assay,[2],potent activity
same,inhibit the vitamin D stimulated production of osteocalcin,[3],inhibit
